Source: patent US20180036234A1, “TREATMENT OF BONE FRACTURES AND DEFECTS” (Entera Bio Ltd., priority 2015, published 2018)
Values joined by “and” are separate entries in the source; they are usually repeats but may differ in a detail not shown here. Identical values can stand only once.

Key:
[1] = Pharmacokinetic study of oral teriparatide tablet co-administered with water or sodium bicarbonate solution; type: in vivo, human; conditions: oral tablet 0.75 mg teriparatide with 150 ml of 3 mg/ml sodium bicarbonate solution, in comparison with 150 ml water; FIG. 16
Method: An open label comparative pharmacokinetic study was performed on ten healthy volunteers. On different visits, each volunteer received the same oral tablet containing 0.75 mg of teriparatide, a recombinant form of parathyroid hormone (1-34) (PTH(1-34)). In the first visit, the tablet was administered with 150 ml water, whereas in the second visit the tablet was administered with 150 ml of 3 mg/ml sodium bicarbonate aqueous solution.
(§1) The formulation was composed of teriparatide (0.75 mg), SNAC (sodium 8-N-(2-hydroxybenzoyl) aminocaprylate), soybean trypsin inhibitor (SBTI) and a small amount of magnesium stearate.
Tablets were administered in the morning after an 8-hour overnight fast. At each visit a standard meal was provided 3 hours after drug administration. […] There was a two week period between the two visits.
To determine PTH(1-34) concentrations, blood samples were drawn and PTH(1-34) levels were measured using an IDS-iSYS automated assay, using procedures described in Example 1 hereinabove. Relative absorption was determined based on the AUC (area under curve) parameter.

[2] = Pharmacokinetic study of oral teriparatide tablet (0.75 mg) in healthy volunteers; type: in vivo, human
Method: An open label comparative pharmacokinetic study was performed in healthy volunteers over the course of 3 months. Each volunteer received—in each of two visits—the same oral tablet containing 0.75 mg of teriparatide, a recombinant form of parathyroid hormone (1-34).
as §1
Tablets were administered in the morning after an 8-hour overnight fast and immediately followed by 150 ml of water. At each visit a standard meal was provided 3 hours after drug administration. […] There was a two weeks period between the visits.
(§2) To determine parathyroid hormone(1-34) (PTH(1-34)) concentrations, blood samples (4 ml each) were drawn via an indwelling catheter from the forearm vein at predetermined time points during each visit. The cannula was flushed with 1.5 ml normal saline after each sampling. In addition, to avoid sample dilution, 1 ml of blood was drawn and discarded before the next sample. The blood samples were taken at following times: baseline (predose), 10 minutes, 15 minutes, 20 minutes, 30 minutes, 45 minutes, 60 minutes, 75 minutes, 90 minutes, 105 minutes, 2 hours, 3 hours, 4 hours and 5 hours post-administration. Each blood sample was collected into a single tube containing EDTA (ethylenediaminetetraacetic acid) and placed on ice. Within 15 minutes of blood collection, samples were centrifuged for 10 minutes at 4° C. (2500 rotations per minute) and the plasma was separated and divided into two or three aliquots. Each aliquot was transferred into appropriately labeled polypropylene tubes and stored at approximately −20° C. pending analysis. PTH(1-34) levels were measured using an IDS-iSYS automated assay for the measurement of intact PTH(1-34) in human plasma or serum.

[3] = Phase I clinical study of oral teriparatide formulations, plasma PTH(1-34) versus subcutaneous injection; type: in vivo, human
Method: A Phase I clinical study of exemplary oral formulations comprising teriparatide (parathyroid hormone (1-34)) was conducted at the Hadassah Clinical Research Center. 42 healthy volunteers were included throughout the study.
The formulation was composed of teriparatide (200, 400, 680, 1400 or 1800 μg), SNAC (sodium 8-N-(2-hydroxybenzoyl) aminocaprylate), soybean trypsin inhibitor and magnesium stearate.
Tablets were administered in the morning after an 8-hour overnight fast and immediately followed by 150 ml of water. At each visit a standard meal was provided 3 hours after drug administration.
as §2, with “hormone” for “hormone(1-34) (PTH(1-34))”, “points.” for “points during each visit.”, “(predose),” for “(predose), 10 minutes,”, “15” for “15 minutes, 20”
Oral administration of teriparatide was performed as described hereinabove at doses of 200, 400, 680, 1400 or 1800 μg. The Cmax of PTH(1-34) for each orally administered dose was compared with the Cmax of PTH(1-34) for subcutaneous injection of 20 μg teriparatide.

cAMP = experiment: Plasma cAMP levels after oral or subcutaneous teriparatide; type: in vivo, human; conditions: FIG. 4
Method: In addition, plasma levels of cAMP, a known marker of PTH activity, were determined in order to confirm biological activity of administered PTH. cAMP plasma levels were measured following oral administration of 680 μg teriparatide or subcutaneous injection of 20 μg teriparatide, as described hereinabove.

[4] = Dissolution test of tablets in simulated gastric buffer, released SNAC by HPLC; type: physicochemical; conditions: tablet with 100 mg sodium bicarbonate vs tablet without; simulated gastric buffer pH 2.0, 37° C.; FIG. 15
Method: The tablets were in a form of a homogeneous mixture.
Each tablet formulation was subjected to a dissolution test in 100 ml of simulated gastric buffer (without pepsin), pH 2.0, at 37° C., according to USP 23 Apparatus 2 (paddle) with 50 rotations per minute. The amount of released SNAC in each sample was determined chromatographically, using an HPLC apparatus with Cosmosil™ 5 C18-MS-II (4.6 ID×250 mm) column. Mobile phase consisted of 50% acetonitrile and 50% phosphoric acid solution (0.1%). Flow rate was 1 ml/minute and injection volume was 25 μl. Amount of released SNAC was calculated as a percentage of the amount of SNAC in the formulation.

[5] = oral tablet 0.75 mg teriparatide with SNAC, SBTI, magnesium stearate, fasted healthy volunteers, plasma PTH(1-34), per subject (A, B, C)
[6] = oral tablet 0.75 mg teriparatide with SNAC, SBTI, magnesium stearate, second visit two weeks later, per subject (A, B, C)

CC[C@H](C)[C@H](NC(=O)[C@H](CCC(=O)O)NC(=O)[C@H](CO)NC(=O)[C@@H](NC(=O)[C@@H](N)CO)C(C)C)C(=O)N[C@@H](CCC(N)=O)C(=O)N[C@@H](CC(C)C)C(=O)N[C@@H](CCSC)C(=O)N[C@@H](Cc1cnc[nH]1)C(=O)N[C@@H](CC(N)=O)C(=O)N[C@@H](CC(C)C)C(=O)NCC(=O)N[C@@H](CCCCN)C(=O)N[C@@H](Cc1cnc[nH]1)C(=O)N[C@@H](CC(C)C)C(=O)N[C@@H](CC(N)=O)C(=O)N[C@@H](CO)C(=O)N[C@@H](CCSC)C(=O)N[C@@H](CCC(=O)O)C(=O)N[C@@H](CCCN=C(N)N)C(=O)N[C@H](C(=O)N[C@@H](CCC(=O)O)C(=O)N[C@@H](Cc1c[nH]c2ccccc12)C(=O)N[C@@H](CC(C)C)C(=O)N[C@@H](CCCN=C(N)N)C(=O)N[C@@H](CCCCN)C(=O)N[C@@H](CCCCN)C(=O)N[C@@H](CC(C)C)C(=O)N[C@@H](CCC(N)=O)C(=O)N[C@@H](CC(=O)O)C(=O)N[C@H](C(=O)N[C@@H](Cc1cnc[nH]1)C(=O)N[C@@H](CC(N)=O)C(=O)N[C@@H](Cc1ccccc1)C(=O)O)C(C)C)C(C)C [teriparatide]
increase in absorption of PTH(1-34) (based on AUC) [1]: about 35% | time for plasma levels to return to baseline levels after tablet administration ([2]; oral tablet 0.75 mg teriparatide with SNAC and SBTI, plasma): ≤ 60 min | Cmax after 1st administration [2, 5]: 35 picogram/ml | Tmax after 1st administration [2, 5]: 10 min and 15 min | Cmax after 2nd administration [2, 6]: 36 picogram/ml | Tmax after 2nd administration [2, 6]: 20 min | decline of PTH levels following oral administration compared with subcutaneous administration ([3]; oral 1800 μg vs subcutaneous 20 μg teriparatide, FIG. 3): declined considerably more rapidly | Cmax of PTH(1-34) following oral administration, relation to dose ([3]; oral tablets 200, 400, 680, 1400 or 1800 μg teriparatide with SNAC and SBTI, FIG. 2): proportional to the dose | oral dose providing a Cmax equivalent to that of subcutaneous administration of 20 μg teriparatide ([3]; oral tablets with SNAC and SBTI, FIG. 2): roughly 750 μg | plasma cAMP levels (cAMP; oral administration of 680 μg teriparatide (compared with subcutaneous 20 μg)): increased plasma cAMP levels to a similar degree | plasma cAMP levels (cAMP; subcutaneous administration of 20 μg teriparatide (compared with oral 680 μg)): increased plasma cAMP levels to a similar degree

O=C(O)CCCCCCCNC(=O)c1ccccc1O [SNAC, sodium 8-N-(2-hydroxybenzoyl)aminocaprylate]
dissolution of SNAC in tablets [4]: considerably enhanced | soluble fraction of SNAC [4]: preserved
